“Also recorded” adds a separate entry of the source. Non-standard residues stand in square brackets, D forms with d. Residues, ends and D or L forms follow the SMILES beside them. *: point of attachment. Phe(F5) = N[C@@H](Cc1c(F)c(F)c(F)c(F)c1F)C(=O)O; Desaminotyrosyl = O=C(CCc1ccc(O)cc1)*; NMeY = CN[C@@H](Cc1ccc(O)cc1)C(=O)O; Agmatine = N=C(N)NCCCCN*; Nle = CCCC[C@H](N)C(=O)O; Orn = NCCC[C@H](N)C(=O)O; Abu = CC[C@H](N)C(=O)O; GABA = NCCCC(=O)O
Key:
[1] = target: T1, GHRH receptor (Homo sapiens, UniProt Q02643); assay: Receptor binding in vitro, 125I-labeled [His1,Nle27]-hGHRH(1-32)NH2, membrane receptors of human anterior pituitary cells (Table 14); conditions: for Relative affinity (Binding potency) compared to JI-38: JI-38 = 1; for GHRH receptor binding affinity (in words): compared to JI-38; for Relative affinity (Binding potency) compared to hGHRH(1-29): hGHRH(1-29)NH2 = 1
T1 sequence (Q02643 23-423): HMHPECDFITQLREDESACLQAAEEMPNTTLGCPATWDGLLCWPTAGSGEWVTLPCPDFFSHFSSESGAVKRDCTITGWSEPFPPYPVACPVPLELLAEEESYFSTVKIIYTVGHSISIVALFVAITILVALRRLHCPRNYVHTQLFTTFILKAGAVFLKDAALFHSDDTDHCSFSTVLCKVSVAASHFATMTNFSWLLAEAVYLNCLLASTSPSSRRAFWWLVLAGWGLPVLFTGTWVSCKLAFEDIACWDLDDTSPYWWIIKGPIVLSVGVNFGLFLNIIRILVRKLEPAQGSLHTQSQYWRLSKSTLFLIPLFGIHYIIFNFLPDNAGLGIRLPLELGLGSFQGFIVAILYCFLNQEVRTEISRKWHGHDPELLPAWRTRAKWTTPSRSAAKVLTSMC
Text: Normal human pituitary was purchased from the National Hormone and Peptide Program (UCLA Medical Center, Torrance, Calif.).

[2] = system: GH release; assay: GH releasing potency in vivo, subcutaneous administration (Example 14, Table 12); design: species or system rat; conditions: for Serum GH level at selected time after injection (ng/ml), 0 min / Serum GH level at selected time after injection (ng/ml), 15 min / Serum GH level at selected time after injection (ng/ml), 30 min: male rats, dose 3 μg/kg, mean ± SEM; for Relative GH-releasing potency compared to JI-38 in s.c. tests (fold, range over time points): time not specified
Procedure, shortened: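 Potency is expressed relative to GHRH(1-29)NH2 and JI-38 (each = 1), via equivalent GHRH(1-29)NH2 dose read from a standard curve. Peptides in 5% mannitol given i.v. or s.c. to anaesthetised male Sprague-Dawley rats (200-250 g); serum GH measured by ELISA at selected times.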

[3] = system: myocardial infarction (Fisher-344 rats); assay: Hemodynamic analysis (pressure-volume loops), body and heart weight after MI, compared to JI-38 (Example 15, Table 16); format: in vivo, rat; design: key to ESP (End-Systolic Pressure) / EDP (End-Diastolic Pressure) / ESV (End-Systolic Volume) / PRSW (Preload Recruitable Stroke Work) / Ees (End-systolic Elastance) / dP/dt max (peak rate of the pressure rise) / dP/dt max_EDV / dP/dt min / TAU (relaxation time constant calculated by Weiss method) / SV (Stroke Volume) / CO (Cardiac Output) / SW (Stroke Work) / EF / Ea/Ees / Ea (arterial Elastance): ↓: downward arrow denotes lower than JI-38; ↑: upward arrow denotes greater than JI-38; =denotes same as JI-38; ⬇⬇: double arrow denotes greater effect; ⬆⬆: double arrow denotes greater effect; conditions: rat MI model, s.c. twice daily; pressure-volume loops; expressed in comparison to JI-38
Procedure, shortened: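 Female 6-month-old Fisher-344 rats after permanent left coronary ligation received GHRH agonists subcutaneously twice daily from 2 h post-surgery (n=10/group). Under ketamine/xylazine/acepromazine anesthesia, LV pressure-volume loops were recorded via carotid micromanometer catheter, calibrated by hypertonic saline bolus and cuvette method; echocardiography also serial.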

Compound | Relative affinity (Binding potency) compared to hGHRH(1-29) [1] | Serum GH level at selected time after injection (ng/ml), 0 min ([2]; s.c.) [ng/mL] | Serum GH level at selected time after injection (ng/ml), 15 min ([2]; s.c.) | Serum GH level at selected time after injection (ng/ml), 30 min ([2]; s.c.) [ng/mL] | Relative potency compared to GHRH(1-29), 15 min ([2]; s.c.) | Relative potency compared to GHRH(1-29), 30 min ([2]; s.c.) | CO (Cardiac Output) [3] | EDP (End-Diastolic Pressure) [3] | EF [3] | ESP (End-Systolic Pressure) [3] | ESV (End-Systolic Volume) [3] | Ea (arterial Elastance) [3] | Ea/Ees [3] | Ees (End-systolic Elastance) [3] | PRSW (Preload Recruitable Stroke Work) [3] | SV (Stroke Volume) [3] | SW (Stroke Work) [3] | TAU (relaxation time constant calculated by Weiss method) [3] | dP/dt max (peak rate of the pressure rise) [3] | dP/dt max_EDV [3] | other results
CCCC[C@H](NC(=O)[C@@H](NC(=O)[C@H](CC(=O)O)NC(=O)[C@H](CCC(N)=O)NC(=O)[C@H](CC(C)C)NC(=O)[C@H](CC(C)C)NC(=O)[C@H](CCCN)NC(=O)[C@H](CCCNC(=N)N)NC(=O)[C@H](C)NC(=O)[C@H](CO)NC(=O)[C@H](CC(C)C)NC(=O)[C@H](CCC(N)=O)NC(=O)[C@H](CC)NC(=O)[C@H](CC(C)C)NC(=O)[C@@H](NC(=O)[C@H](CCCN)NC(=O)[C@H](CCCNC(=N)N)NC(=O)[C@H](Cc1ccc(O)cc1)NC(=O)[C@H](CO)NC(=O)[C@H](CCC(N)=O)NC(=O)[C@@H](NC(=O)[C@H](Cc1ccccc1)NC(=O)[C@@H](NC(=O)[C@H](C)NC(=O)[C@H](CC(=O)O)NC(=O)[C@@H](C)NC(=O)[C@H](Cc1ccc(O)cc1)NC)[C@@H](C)CC)[C@@H](C)O)C(C)C)[C@@H](C)CC)C(=O)N[C@@H](CC(=O)O)C(=O)N[C@@H](CCCNC(=N)N)C(=O)NC [Peptide P-27403, [N—Me-Tyr^1, D-Ala^2, Gln^8, Orn^12, Abu^15, Orn^21, Nle^27, Asp^28]hGHRH(1-29)NH—CH3] (H-[NMeY][dA]DAIFTQSYR[Orn]VL[Abu]QLSAR[Orn]LLQDI[Nle]DR-NHMe) | 10.30 | 39.4 ± 5.3 | 608.7 ± 35.3 ng/mL | 281.7 ± 18.6 | 223.8 | 448.9 | ↑ | ↑ | = | = | ↑ | = | ↓ | = | = | = | = | = | = | = | Relative affinity (Binding potency) compared to JI-38 ([1]; listed as MR-403): 3.69; GHRH receptor binding affinity (in words) [1]: highest GH-releasing potency and binding affinity; potency as compared to JI-38 in both i.v. and s.c. tests [2]: increased potency as compared to JI-38; Relative GH-releasing potency compared to JI-38 in s.c. tests (fold, range over time points) ([2]; s.c.): 3.6-4.0; GH-releasing potency after s.c. administration (in words) ([2]; s.c., listed as MR-403): highest GH-releasing potency; also recorded: significantly higher potencies at 30 minutes than at 15 minutes; dP/dt min [3]: =
CCCC[C@H](NC(=O)[C@@H](NC(=O)[C@H](CC(=O)O)NC(=O)[C@H](CCC(N)=O)NC(=O)[C@H](CC(C)C)NC(=O)[C@H](CC(C)C)NC(=O)[C@H](CCCN)NC(=O)[C@H](CCCNC(=N)N)NC(=O)[C@H](C)NC(=O)[C@H](CO)NC(=O)[C@H](CC(C)C)NC(=O)[C@H](CCC(N)=O)NC(=O)[C@H](CC)NC(=O)[C@H](CC(C)C)NC(=O)[C@@H](NC(=O)[C@H](CCCN)NC(=O)[C@H](CCCNC(=N)N)NC(=O)[C@H](Cc1ccc(O)cc1)NC(=O)[C@H](CO)NC(=O)[C@H](CCC(N)=O)NC(=O)[C@@H](NC(=O)[C@H](Cc1ccccc1)NC(=O)[C@@H](NC(=O)[C@H](C)NC(=O)[C@H](CC(=O)O)NC(=O)[C@@H](C)NC(=O)[C@H](Cc1ccc(O)cc1)NC)[C@@H](C)CC)[C@@H](C)O)C(C)C)[C@@H](C)CC)C(=O)N[C@@H](CC(=O)O)C(=O)NCCCCNC(=N)N [Peptide P-20361, [N—Me-Tyr^1, D-Ala^2, Gln^8, Orn^12, Abu^15, Orn^21, Nle^27, Asp^28, Agm^29] hGHRH (1-29)NH2] (H-[NMeY][dA]DAIFTQSYR[Orn]VL[Abu]QLSAR[Orn]LLQDI[Nle]D-Agmatine) | 6.42 | 46.1 ± 6.3 | 275.9 ± 46.4 ng/mL | 142.6 ± 18.4 | 80 | 134.1 | = | ↑ | = | ↑ | ↑ | ↑ | ↓ | ↑ | = | ↓ | ↓ | ↑ | = | ↑ | Relative affinity (Binding potency) compared to JI-38 [1]: 2.30; GHRH receptor binding affinity (in words) [1]: improved receptor binding affinity; Relative potency compared to JI-38, 15 min ([2]; s.c.): 1.27; Relative potency compared to JI-38, 30 min ([2]; s.c.): 1.20; dP/dt min [3]: =
CCCC[C@H](NC(=O)[C@@H](NC(=O)[C@H](CC(=O)O)NC(=O)[C@H](CCC(N)=O)NC(=O)[C@H](CC(C)C)NC(=O)[C@H](CC(C)C)NC(=O)[C@H](CCCN)NC(=O)[C@H](CCCNC(=N)N)NC(=O)[C@H](C)NC(=O)[C@H](CO)NC(=O)[C@H](CC(C)C)NC(=O)[C@H](CCC(N)=O)NC(=O)[C@H](CC)NC(=O)[C@H](CC(C)C)NC(=O)[C@@H](NC(=O)[C@H](CCCN)NC(=O)[C@H](CCCNC(=N)N)NC(=O)[C@H](Cc1ccc(O)cc1)NC(=O)[C@H](CO)NC(=O)[C@H](CC(N)=O)NC(=O)[C@@H](NC(=O)[C@H](Cc1c(F)c(F)c(F)c(F)c1F)NC(=O)[C@@H](NC(=O)[C@H](C)NC(=O)[C@H](CC(=O)O)NC(=O)[C@@H](C)NC(=O)CCc1ccc(O)cc1)[C@@H](C)CC)[C@@H](C)O)C(C)C)[C@@H](C)CC)C(=O)N[C@@H](CO)C(=O)N[C@@H](CCCNC(=N)N)C(=O)NCCCC(N)=O [Peptide P-25502, [Dat^1, D-Ala^2, Fpa5^6, Orn^12, Abu^15, Orn^21, Nle^27, Gab^30]hGHRH(1-30)NH2] (Desaminotyrosyl-[dA]DAI[Phe(F5)]TNSYR[Orn]VL[Abu]QLSAR[Orn]LLQDI[Nle]SR[GABA]-NH2) | 3.54 | 61.7 ± 8.1 | 266.7 ± 21^ ng/ml | 153.2 ± 33.3 | 76.5 | 152.3 | ↓ | = | ↓ | = | = | ↑ | = | ↑ | = | ↓ | = | ↓ | = | = | Relative affinity (Binding potency) compared to JI-38 [1]: 1.27; potency as compared to JI-38 in both i.v. and s.c. tests [2]: increased potency as compared to JI-38; Relative potency compared to JI-38, 15 min ([2]; s.c.): 1.21; Relative potency compared to JI-38, 30 min ([2]; s.c.): 1.36; Relative GH-releasing potency compared to JI-38 in s.c. tests (fold, range over time points) ([2]; s.c., listed as MR-502): 1.2-1.4; dP/dt min [3]: =

From patent US10555987B2, “GHRH agonists for the treatment of ischemic disorders” (UNIVERSITY OF MIAMI, priority 2012, dated 2020)
